Experimental data taken from publication PMC6374164 (Organic & biomolecular chemistry, 2019).

Columns and labels:
breast epithelial cells = settings: cited from earlier work
TRKB = settings: tested at 1 μM; cited from earlier work
BPTF bromodomain = BPTF bromodomain (Homo sapiens, UniProt Q12830); assay: PrOF NMR binding to 5FW-labeled BPTF bromodomain; settings: 5FW BPTF bromodomain, 19F resonance of W2824
p38-δ = settings: tested at 1 μM; cited from earlier work
HPK1 = settings: tested at 1 μM; cited from earlier work
BPTF = settings: cited from earlier work
TRKC = TRKC (Homo sapiens, UniProt Q16288); settings: tested at 1 μM; cited from earlier work
Sequence of TRKC (Q16288 32-839): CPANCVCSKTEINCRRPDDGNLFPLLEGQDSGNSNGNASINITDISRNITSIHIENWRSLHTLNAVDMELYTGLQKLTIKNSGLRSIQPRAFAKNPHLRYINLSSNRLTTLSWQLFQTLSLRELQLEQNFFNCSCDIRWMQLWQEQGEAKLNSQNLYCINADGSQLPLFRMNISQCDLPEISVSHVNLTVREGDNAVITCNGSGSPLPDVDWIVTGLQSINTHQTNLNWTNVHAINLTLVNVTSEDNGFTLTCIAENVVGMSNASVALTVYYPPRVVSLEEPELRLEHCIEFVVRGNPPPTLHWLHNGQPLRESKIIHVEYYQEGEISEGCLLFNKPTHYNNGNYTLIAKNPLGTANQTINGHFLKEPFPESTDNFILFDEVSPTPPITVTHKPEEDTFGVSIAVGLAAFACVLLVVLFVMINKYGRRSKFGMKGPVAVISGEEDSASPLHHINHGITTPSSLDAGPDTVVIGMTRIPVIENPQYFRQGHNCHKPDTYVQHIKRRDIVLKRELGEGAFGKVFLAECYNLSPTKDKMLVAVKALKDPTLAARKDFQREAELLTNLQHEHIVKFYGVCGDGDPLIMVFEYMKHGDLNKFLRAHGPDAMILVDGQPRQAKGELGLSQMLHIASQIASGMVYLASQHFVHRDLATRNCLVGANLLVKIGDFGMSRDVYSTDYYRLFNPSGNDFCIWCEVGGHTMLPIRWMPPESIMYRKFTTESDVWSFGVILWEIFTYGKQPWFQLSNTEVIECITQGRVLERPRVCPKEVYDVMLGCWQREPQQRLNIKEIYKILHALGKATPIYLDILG

CDK11 = settings: tested at 1 μM; cited from earlier work
[1] = Aqueous solubility by solution turbidity; assay type: physicochemical
parasite = settings: cited from earlier work
CDKL2 = molecular target: T1, CDKL2 (Homo sapiens, UniProt Q92772); settings: tested at 1 μM; cited from earlier work
T1 sequence (Q92772 1-493): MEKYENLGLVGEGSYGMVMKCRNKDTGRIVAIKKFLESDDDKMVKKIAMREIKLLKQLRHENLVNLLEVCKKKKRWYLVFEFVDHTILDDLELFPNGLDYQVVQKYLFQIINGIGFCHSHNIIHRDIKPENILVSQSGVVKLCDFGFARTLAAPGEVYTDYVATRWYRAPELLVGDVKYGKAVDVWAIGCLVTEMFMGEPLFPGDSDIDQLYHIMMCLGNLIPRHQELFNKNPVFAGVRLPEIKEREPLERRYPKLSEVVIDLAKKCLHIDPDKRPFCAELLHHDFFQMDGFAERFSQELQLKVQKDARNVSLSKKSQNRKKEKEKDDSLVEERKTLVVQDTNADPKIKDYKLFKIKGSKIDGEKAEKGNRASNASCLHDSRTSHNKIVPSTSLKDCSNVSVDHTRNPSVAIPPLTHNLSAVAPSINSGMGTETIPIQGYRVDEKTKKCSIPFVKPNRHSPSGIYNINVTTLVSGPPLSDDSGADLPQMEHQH

COC(=O)c1cccc(NC(=O)NC2CCN(c3ccnc(Nc4ccc(F)cc4)n3)C2)c1 (racemic) [rac-1]
effects in breast epithelial cells (breast epithelial cells): decreased c-MYC regulated genes, c-MYC chromatin occupancy, and led to G1 cell cycle arrest | inhibition of TRKB (TRKB): 51–68% | PrOF NMR binding behaviour of the 5FW BPTF resonance (BPTF bromodomain): significant broadening of the fluorine resonance | inhibition of p38-δ (p38-δ): 51–68% | inhibition of HPK1 (HPK1): 51–68% | transcription in a BPTF-specific reporter assay (BPTF): reducing transcription | inhibition of TRKC (TRKC): 82% | inhibition of CDK11 (CDK11): 51–68% | solubility (concentration above which solution turbidity increases) [1]: ~ 100 μM | antimalarial activity (parasite): has shown antimalarial activity | inhibition of CDKL2 (CDKL2): 82%
